Source: patent US8158810B2 (Gilead Sciences, Inc., priority 2006, dated 2012)
“And” between values parts separate entries of the source, which are not always exact repeats. Identical values can stand only once.

Experiments:
Assay type in all cases: biochemical
[1] = target: T1, hALDH2 (recombinant human mitochondria ALDH) (Homo sapiens, UniProt P05091); assay: ALDH2 inhibition assay
T1 sequence (P05091 18-517): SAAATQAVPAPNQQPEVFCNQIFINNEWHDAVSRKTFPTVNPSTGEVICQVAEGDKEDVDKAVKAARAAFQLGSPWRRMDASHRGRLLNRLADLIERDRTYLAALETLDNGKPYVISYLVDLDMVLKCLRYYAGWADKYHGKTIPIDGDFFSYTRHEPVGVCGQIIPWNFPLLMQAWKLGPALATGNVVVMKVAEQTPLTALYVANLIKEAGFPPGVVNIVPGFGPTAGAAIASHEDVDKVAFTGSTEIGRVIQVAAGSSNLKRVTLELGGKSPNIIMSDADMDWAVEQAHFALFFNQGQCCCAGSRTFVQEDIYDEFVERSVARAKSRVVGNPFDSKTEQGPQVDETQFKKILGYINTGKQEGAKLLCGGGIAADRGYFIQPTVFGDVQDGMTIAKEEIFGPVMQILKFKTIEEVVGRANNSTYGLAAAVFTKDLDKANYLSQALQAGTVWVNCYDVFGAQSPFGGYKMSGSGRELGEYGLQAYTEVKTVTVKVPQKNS
Method: ALDH2 inhibition assays were performed in sodium phosphate buffer (50 mM, pH 7.4) containing 1.2 mM NAD^+ (Sigma N7004), 1 nM hALDH2 (recombinant human mitochondria ALDH), various concentrations of test compounds (from 0.03 nM to […]), and 0.15 mM freshly prepared formaldehyde solution (Ladd Research 20295). Reactions were initiated by the addition of formaldehyde and rates were recorded by monitoring NADH formation in a temperature controlled (25° C.) FluoroMax-2 Fluorimeter with excitation and emission wavelengths set at 340 and 460 nm, respectively. […] Normally, IC50 values were determined by fitting concentration-inhibition data to sigmoidal dose-response curves with two-floating parameters: IC50 and Hill coefficient. When tight binding situation was suspected, apparent Ki values were estimated by fitting dose-response data to Morrison's equation [Methods in Enzymology 63, 437-467, 1979].

[2] = target: T2, hMAO-A (Homo sapiens, UniProt P21397); assay: MAO-A inhibition assay; settings: up to 10 μM; No = no inhibition; printed in the IC50 hMAO-A column
T2 construct: purchased Sigma M7316
T2 sequence (P21397 1-527): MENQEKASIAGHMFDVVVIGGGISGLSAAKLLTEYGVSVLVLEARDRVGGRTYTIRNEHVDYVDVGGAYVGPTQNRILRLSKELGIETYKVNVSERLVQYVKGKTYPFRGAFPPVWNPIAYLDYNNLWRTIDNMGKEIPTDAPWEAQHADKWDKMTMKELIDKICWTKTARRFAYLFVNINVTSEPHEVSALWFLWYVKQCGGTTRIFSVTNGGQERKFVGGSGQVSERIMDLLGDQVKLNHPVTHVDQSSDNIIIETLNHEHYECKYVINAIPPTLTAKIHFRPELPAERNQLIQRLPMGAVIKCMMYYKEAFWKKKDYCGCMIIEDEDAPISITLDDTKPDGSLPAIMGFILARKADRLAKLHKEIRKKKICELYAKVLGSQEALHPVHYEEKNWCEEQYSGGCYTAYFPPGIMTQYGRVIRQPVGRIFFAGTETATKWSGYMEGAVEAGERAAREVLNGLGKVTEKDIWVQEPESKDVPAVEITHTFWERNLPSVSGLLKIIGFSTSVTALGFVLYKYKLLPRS
Method: (§1) MAO-A (Sigma M7316) and MAO-B (Sigma M7441) inhibition assays were conducted in 96-well micro-plates according to the method described by Zhou et al. [Analytical Biochemistry 253, 169-174, 1997]. […] Reactions were initiated by the addition of a pre-mixed solution of tyramine, horseradish peroxidase and Amplex Red, and were allowed to proceed at 37° C. for 30 min. Enzyme activities were determined by measuring absorbance at 570 nm (SpectralMax Plate reader), absorbance of oxidized Amplex Red generated by this horseradish peroxidase-coupled reaction. Nonspecifically formed products were determined in the presence of 2 and 10 µM clorgyline and deprenyl for MAO-A and MAO-B, respectively. IC50 values were determined by fitting concentration-inhibition data to sigmoidal dose-response curves with two-floating parameters: IC50 and Hill coefficient.

[3] = target: T3, hMAO-B (Homo sapiens, UniProt P27338); assay: MAO-B inhibition assay; settings: No = no inhibition; for inhibition at 10 µM / hMAO-B inhibition at 10 μM: printed in the IC50 hMAO-B column
T3 construct: purchased Sigma M7441
T3 sequence (P27338 1-520): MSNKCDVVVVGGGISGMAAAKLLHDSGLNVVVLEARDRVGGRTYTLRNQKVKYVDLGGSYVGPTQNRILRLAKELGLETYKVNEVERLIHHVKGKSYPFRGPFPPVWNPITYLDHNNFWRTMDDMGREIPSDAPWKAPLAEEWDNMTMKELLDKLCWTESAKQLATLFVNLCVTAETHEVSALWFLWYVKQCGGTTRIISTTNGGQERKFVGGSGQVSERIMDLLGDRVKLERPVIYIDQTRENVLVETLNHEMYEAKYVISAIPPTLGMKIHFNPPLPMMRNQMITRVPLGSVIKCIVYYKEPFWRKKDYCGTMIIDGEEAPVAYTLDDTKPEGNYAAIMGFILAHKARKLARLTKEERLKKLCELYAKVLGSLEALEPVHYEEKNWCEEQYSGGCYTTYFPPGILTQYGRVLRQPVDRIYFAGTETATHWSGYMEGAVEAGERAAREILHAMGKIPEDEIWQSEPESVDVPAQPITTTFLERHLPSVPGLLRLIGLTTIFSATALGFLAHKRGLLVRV
Method: as §1

Compound | IC50 [1] | hMAO-A inhibition up to 10 μM [2] | inhibition at 10 µM [3] | hMAO-B inhibition at 10 μM [3] | hALDH2 inhibition at 1 μM ([1]; at 1 μM, printed in the IC50 hALDH2 column) | hMAO-B inhibition up to 10 μM ([3]; up to 10 μM)
CC(Oc1ccc2c(=O)c(-c3ccc(O)cc3)coc2c1)c1nnc(-c2cccnc2)o1 (stereo not shown) | 17 nM and 15 nM | No | 30% |  |  | 
CC(Oc1ccc2c(=O)c(-c3ccc(O)cc3)coc2c1)c1noc(-c2cc(F)cc(C(F)(F)F)c2)n1 (stereo not shown) | 48 nM | No | 18% |  |  | 
3-(4-hydroxyphenyl)-7-(2-{4-[3-(trifluoromethyl)phenyl]piperazinyl}ethoxy)chromen-4-one [PT-124] | 18 nM | No |  | 21% |  | 
3-(4-hydroxyphenyl)-7-[(5-(4-pyridyl)(1,2,4-oxadiazol-3-yl))ethoxy]chromen-4-one [PT-117] | 98 nM | No |  | No |  | 
3-(4-hydroxyphenyl)-7-[(6-pyrazolyl(3-pyridyl))methoxy]chromen-4-one [PT-52] | 10 nM | No |  |  |  | 
7-{2-[4-(3-chlorophenyl)piperazinyl]ethoxy}-3-(4-hydroxyphenyl)chromen-4-one [PT-123] | 11 nM | No |  |  |  | 
N#Cc1cc(-c2coc3cc(OCc4noc(-c5cc(F)cc(C(F)(F)F)c5)n4)ccc3c2=O)ccc1F [PT-9, 2-fluoro-5-[7-({5-[5-fluoro-3-(trifluoromethyl)phenyl](1,2,4-oxadiazol-3-yl)}methoxy)-4-oxochromen-3-yl]benzenecarbonitrile] |  |  |  |  | 25% | 
CC(C)OC(=O)c1cccc(COc2ccc3c(=O)c(-c4ccc(O)cc4)coc3c2)c1 [PT-35, methylethyl 3-{[3-(4-hydroxyphenyl)-4-oxochromen-7-yloxy]methyl}benzoate] | 20 nM | No |  |  |  | No
O=c1c(-c2ccc(O)cc2)coc2cc(OCCc3n[nH]cc3-c3ccc(Cl)cc3)ccc12 [PT-51, 7-{2-[4-(4-chlorophenyl)pyrazolyl]ethoxy}-3-(4-hydroxyphenyl)chromen-4-one] | 110 nM |  |  |  |  | 
O=c1c(-c2ccc(O)cc2)coc2cc(OCCc3cccc(C(F)(F)F)c3)ccc12 [PT-59, 3-(4-hydroxyphenyl)-7-{[3-(trifluoromethyl)phenyl]ethoxy}chromen-4-one] | 670 nM | No |  | 24% |  | 
O=c1c(-c2ccc(O)cc2)coc2cc(OCc3cc(-c4cc(C(F)(F)F)cc(C(F)(F)F)c4)on3)ccc12 [PT-62, 7-({5-[3,5-bis(trifluoromethyl)phenyl]isoxazol-3-yl}methoxy)-3-(4-hydroxyphenyl)chromen-4-one] |  | No |  | no |  | 
NC(=O)c1ccc(-c2coc3cc(OCc4noc(-c5cc(F)cc(C(F)(F)F)c5)n4)ccc3c2=O)cc1 [PT-72, 4-[7-({5-[3-fluoro-5-(trifluoromethyl)phenyl](1,2,4-oxadiazol-3-yl)}methoxy)-4-oxochromen-3-yl]benzamide] |  | No |  | No |  | 
O=c1c(-c2ccc(O)cc2)coc2cc(OCc3nnc(-c4ccccc4Cl)o3)ccc12 [PT-80, 7-{[5-(2-chlorophenyl)(1,3,4-oxadiazol-2-yl)]methoxy}-3-(4-hydroxyphenyl)chromen-4-one] |  | No |  | No |  | 
O=C(COc1ccc2c(=O)c(-c3ccc(O)cc3)coc2c1)c1ccccc1C(F)(F)F [PT-85, 3(4-hydroxyphenyl)-7-{2-oxo-2-[2-(trifluoromethyl)phenyl]ethoxy}chromen-4-one] |  | No |  | No |  | 
O=c1c(-c2ccc(O)cc2)coc2cc(OCc3cncc(C(F)(F)F)c3)ccc12 [PT-94, 3-(4-hydroxyphenyl)-7-{[5-(trifluoromethyl)(3-pyridyl)]methoxy}chromen-4-one] |  | No |  | No |  | 
O=c1c(-c2ccc(O)cc2)coc2cc(OCCCc3n[nH]cc3-c3ccc(Cl)cc3)ccc12 [PT-106, 7-{3-[4-(4-chlorophenyl)pyrazolyl]propoxy}-3-(4-hydroxyphenyl)chromen-4-one] | 110 nM |  |  |  |  | 
O=c1c(-c2ccc(O)cc2)coc2cc(OCc3nnc(-c4cccnc4)o3)ccc12 [PT-110, 3-(4-hydroxyphenyl)-7-[(5-(3-pyridyl)(1,3,4-oxadiazol-2-yl))methoxy]chromen-4-one] |  | No |  | No |  | 
O=c1c(-c2ccc(O)cc2)coc2cc(OCc3nc(-c4cccnc4)no3)ccc12 [PT-114, 3-(4-hydroxyphenyl)-7-[(3-(3-pyridyl)(1,2,4-oxadiazol-5-yl))methoxy]chromen-4-one] |  | No |  | No |  | 
O=c1c(-c2ccc(O)cc2)coc2cc(OCc3nc(-c4cccc(C(F)(F)F)c4)no3)ccc12 [PT-115, 3-(4-hydroxyphenyl)-7-({3-[3-(trifluoromethyl)phenyl](1,2,4-oxadiazol-5-yl)}methoxy)chromen-4-one] |  | No |  | No |  | 
CNC(=O)c1coc(COc2ccc3c(=O)c(-c4ccc(O)cc4)coc3c2)n1 [PT-118, (2-{[3-(4-hydroxyphenyl)-4-oxochromen-7-yloxy]methyl}(1,3-oxazol-4-yl))-N-methylcarboxamide] |  | No |  | No |  | 
COc1ccc2c(COc3ccc4c(=O)c(-c5ccc(O)cc5)coc4c3)cc(=O)oc2c1 [PT-119, 4-{[3-(4-hydroxyphenyl)-4-oxochromen-7-yloxy]methyl}-7-methoxychromen-2-one] |  | No |  | No |  | 
Nc1cccc(-c2nnc(COc3ccc4c(=O)c(-c5ccc(O)cc5)coc4c3)o2)c1 [PT-121, 7-{[5-(3-aminophenyl)(1,3,4-oxadiazol-2-yl)]methoxy}-3-(4-hydroxyphenyl)chromen-4-one] |  | No |  | No |  | 
CCOC(=O)c1cnn(CCOc2ccc3c(=O)c(-c4ccc(O)cc4)coc3c2)c1 [PT-122, ethyl 1-{2-[3-(4-hydroxyphenyl)-4-oxochromen-7-yloxy]ethyl}pyrazole-4-carboxylate] |  | No |  | No |  | 
